In article PMC2891523 (The Journal of organic chemistry, 2010):

Molecular target: T1, α-TTP (tocopherol transfer protein) (Homo sapiens, UniProt P49638)
T1 sequence (P49638 1-278): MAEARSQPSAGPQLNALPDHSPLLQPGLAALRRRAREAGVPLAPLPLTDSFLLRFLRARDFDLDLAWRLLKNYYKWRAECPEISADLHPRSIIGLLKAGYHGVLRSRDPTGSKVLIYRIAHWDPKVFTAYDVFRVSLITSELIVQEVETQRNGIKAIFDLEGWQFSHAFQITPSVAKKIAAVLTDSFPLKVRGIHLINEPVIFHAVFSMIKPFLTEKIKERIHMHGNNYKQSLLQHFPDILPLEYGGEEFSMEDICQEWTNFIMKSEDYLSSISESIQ
Assay: fluorescence titration of purified α-TTP, one-site binding fit

CC1=CC(C)=[N+]2C1=Cc1ccc(CCCCCC[C@]3(C)CCc4c(C)c(O)c(C)c(C)c4O3)n1[B-]2(F)F [10a, (R)-5,5-difluoro-7-(6-(6-hydroxy-2,5,7,8-tetramethylchroman-2-yl)hexyl)-1,3-dimethyl-5H-dipyrrolo[1,2-c:1′,2′-f][1,3,2]diazaborinin-4-ium-5-uide] gave a Kd of 232 ± 10 nM.
